We go through 2 sequences from EP2077274A1, “Synthetic analogs of human beta-defensins having antimicrobial, antiviral and chemotactic activity” (Ceinge Biotecnologie Avanzate s.c. a r.l., priority 2008, dated 2009).

One experiment relates to P.aeruginosa ATCC 27853. The experiment can be described thus: Colony-forming unit (CFU) assay of antibacterial activity with NaCl dependence. In kind it is cell-based. The following applies: for antibacterial activity compared to wild-type hBD3: 200 mM NaCl. As for the experimental part: (§1) Colony-forming unit (CFU) assay of the antibacterial activity of the peptides against P.aeruginosa ATCC (American Type Culture Collection, Manassas, VA, USA) 27853, Enterococcus faecalis ATCC 29212 and Escherichia coli ATCC 25922 was performed. The strains were grown in aerobic conditions in tryptic soy broth (Difco Laboratories, Detroit, MI, USA) at 37°C. Cells from exponential-phase cultures were centrifuged, washed and suspended to a density of 1 x 10^5 CFU/mL in sterile 10 mM potassium phosphate buffer, pH 7.4, and incubated in the presence of the peptides. The incubation time was 2 h at 37°C. […] For salt dependence assay, NaCl in a range of concentrations potentially present in the airway surface fluid of normal subjects and CF patients (33), i.e., 0, 50, 100 and 200 mM NaCl, were included in the incubation buffer. The cells were then diluted serially in the same buffer, spread on tryptone-yeast (Difco Laboratories) plates and the colonies were counted after 18 h at 37°C. Each assay was performed in triplicate. Bactericidal activity (mean and SD of three assays) is expressed as the ratio between colonies counted and the number of colonies on a control plate.

Experiment [1] has as its system Escherichia coli ATCC 25922. Described as above. In kind it is cell-based. The protocol:
as §1

In experiment [2] the test system is Enterococcus faecalis ATCC 29212. The description is as above. The experiment is classed as cell-based. The protocol: as §1
The test system of the next experiment is monocytes. The experiment can be described thus: Chemotaxis assay (leukocyte migration, calcein fluorescence). In kind it is cell-based, human. The following applies: peptide 1.25 µM. As for the experimental part:
(§2) Preparation of leukocytes-Monocytes and neutrophils were isolated as described in the StemSep Cell Technical Manual (Stem Cell Technologies, Vancouver, Canada). Briefly, to obtain neutrophils, buffy coats were diluted 1:20 in NH4Cl supplemented with 2 mM EDTA and incubated on ice for 20 min. Cell suspensions were centrifuged for 10 min at 600 X g at room temperature with the brake off and washed three times with phosphate buffered saline (PBS) supplemented with 2% foetal bovine serum and 2 mM EDTA. Cell viability was assessed by analysis of light scatter properties, and cell count was performed using a logical gate strategy based on Trucount tubes (Becton-Dickinson, San Jose, CA, USA). Neutrophils were purified from lysed buffy coats using StemSep negative selection system. To this purpose, 100x10^6 mononuclear cells from lysed buffy coats were incubated with 100 µL of custom antibody cocktail for human granulocytes enrichment (Stem Cell Technologies) for 45 min on ice. In addition, cell suspensions were incubated with 60 µL of magnetic colloid for 30 minutes on ice. Finally, the samples were run through a 0.3-inch column matrix in a negative selection system in which the unwanted cells were immunomagnetically labelled and bound to the magnetic column. Neutrophils, after the separation, were collected in the column flowthrough without antibody bound to their surface. In order to obtain monocytes, human buffy coats were layered over a Ficoll-Paque density gradient and spun at 600 X g for 30 min with the brake off. The mononuclear cell-rich fractions were washed three times with PBS supplemented with 2% foetal bovine serum (FBS) and 2 mM EDTA. Cell viability was assessed by analysis of light scatter properties, and cell count was performed using a logical gate strategy based on Trucount tubes (Becton-Dickinson). A custom antibody cocktail for human monocyte enrichment (Stem Cells Technologies) was used for immunomagnetic negative selection of monocytes. Mononuclear cells were incubated as above described for neutrophils. Both neutrophils and monocytes were resuspended in 5.0 mL of RPMI-1640 (Sigma-Aldrich, St Louis, MO, USA) without phenol red containing 10% heat-treated FBS. Calcein AM (Molecular Probes, Eugene, OR, USA) was added to the cell suspensions (5.0 mL) at a concentration of 5 µg/mL and the cells were incubated for 30 min at 37°C. Cell suspensions were washed twice with PBS and then resuspended in RPMI-FBS to the desired concentration.
(§3) Measurement of leukocytes migration-The chemotaxis assay of monocytes and neutrophils (90-95% of purity) was performed in 96-well disposable chemotaxis chambers (Neuroprobe, Gaithersburg, MD, USA) using polyvinyl-pyrrolidone-free polycarbonate membranes with an […] pore size for monocytes and with a […] pore size for neutrophils. Chemotaxis was measured by fluorescence detection, using the calcein fluorescence signal. The fluorescence was read in a microplate fluorescence reader (Victor 3 1420 Multilabel Counter, Perkin Elmer) with excitation/emission wave-length settings of 485/530 nm. We calculated the migration index as the ratio between the sample mean fluorescence (after subtraction of the negative control mean fluorescence)/positive control mean fluorescence. Each assay was performed in quadruplicate.

For another experiment, the system named is neutrophils. The experiment is described as above. In kind it is cell-based, human. The following applies: peptide 1.25 µM. The protocol:
as §2, §3

The test system of another experiment is HSV-1. Kind of experiment: HSV-1 infectivity plaque assay on Vero cell monolayers (co-exposure, virus pre-treatment, cell pre-exposure). In kind it is cell-based. The following applies: for % of infectivity: mean and SD of 3 replicates. The protocol:
Vero cells were grown in Dulbecco's modified Eagle's medium (DMEM) supplemented with 10% foetal calf serum. HSV-1 carrying a IacZ gene driven by the cytomegalovirus (CMV) IE-1 promoter to express beta-galactosidase was propagated as described (33). Peptides were dissolved in DMEM with serum and used at different concentrations. All experiments were conducted in parallel with scrambled peptides and no-peptide controls. […] Non-penetrated viruses were inactivated by citrate buffer at pH 3.0 after the 45 min incubation with cells at 37°C. The cells were then incubated for 48 h at 37°C in DMEM supplemented with carboxymethylcellulose (CMC). Monolayers were fixed, stained with 5-bromo-4-chloro-3-indolyl-beta-D-galactopyranoside (X-gal) and plaque numbers were scored. Experiments were performed in triplicate and the percentage of inhibition was calculated with respect to no-peptide control experiments. ii) For "virus pre-treatment" experiments, approximately 2 x 10^4 plaque forming units (PFU) of HSV-1 were incubated in the presence of 20 µM of peptides for 45 min at 37°C, then titrated on Vero cell monolayers. iii) For "cell pre-exposure" experiments, Vero cells were incubated with 20 µM of peptides for 30 min at 4°C. Peptides were removed, and cells were washed with phosphate-buffered saline before being infected with serial dilutions of HSV-1 and incubated for 45 min at 37°C.
Monolayers were exposed to different concentrations (10, 50, 100, 250 and 500 µM) of each peptide for 24 h, and cell viability was evaluated with the LDH assay. There was no significant difference between the viability of cells exposed to the peptides and that of cells exposed to control (data not shown). Thus, we evaluated the antiviral activity of wild type peptides and their analogs in: co-exposure experiments (cell + virus + peptide at zero time); virus pre-treatment (virus + peptide incubation before cell infection); and cell pre-exposure (cell + peptide incubation before virus infection). This would allow to evaluate if, and in which phase, the peptides could inhibit the virus infectivity.
For co-exposure experiments, we incubated the peptides on the monolayers of Vero cells together with the virus inoculum for 45 min before low pH treatment. The reduced form of wild-type hBD1 and hBD3 and analogs 1C, 1 N, 3C, 3N were used in all subsequent experiments. […] No control (peptide excluded) inhibited HSV-1 infectivity under similar experimental conditions.

[3] abbreviates: peptide 12.5 µM, 200 mM NaCl, p<0.01.
Where [4] appears, read: cell pre-exposure, peptide 20 µM.
The mark [5] stands for this setting: virus pre-incubation, peptide 20 µM.
[6] abbreviates: 0 to 200 mM NaCl, pattern as against P. aeruginosa.

Regarding “GIINTLDHYNCVSSGGQCLYSACPIFTKIQGTCYRGKAKCCK [1N]”, the “antibacterial activity, inhibition by NaCl” value (in the experiment with P.aeruginosa ATCC 27853 (50 mM NaCl); in experiment [1] (50 mM NaCl); in experiment [2] (50 mM NaCl)) was “inhibited already by 50 mM NaCl” throughout. Further, the “antibacterial activity compared to wild-type hBD3” value is “significantly higher” in the experiment on P.aeruginosa ATCC 27853 (peptide 12.5 µM, p<0.01); “significantly higher” in experiment [1] (setting [3]); “significantly higher” in experiment [2] (setting [3]). Also, the “chemotactic activity compared to wild-type hBD1” value is reported as “comparable to that of wild-type hBD1” in the experiment on monocytes and “significantly lower activity” with neutrophils. Besides, the “% of infectivity” value in the experiment on HSV-1 (setting [4]) is 64.8±3.5 %; in the experiment with HSV-1 (co-exposure, peptide 20 µM), 73.2±4.2 %; with HSV-1 (setting [5]) it was 75.6±3.5 %.

Regarding “DHYNCVSSGGQCLYSACPIFTKIQGTCYRGKRKCCRRKK [1C]”, the “antibacterial activity compared to wild-type hBD3” value with P.aeruginosa ATCC 27853 (peptide 2.5 and 12.5 µM, p<0.001) is on record as “significantly higher”. Further, the “antibacterial activity compared to wild-type hBD3, pattern over NaCl concentrations” value in experiment [1] (setting [6]) and in experiment [2] (setting [6]) was “same pattern of activity” throughout. The figures for the “chemotactic activity compared to wild-type hBD1” value in the experiment with monocytes and in the experiment on neutrophils were “significantly lower” and “comparable to that of hBD1”, respectively. In addition, the “antiviral activity in words” value with HSV-1 (cell pre-exposure treatment, peptide 20 µM) is given as “active”. Besides, the “% of infectivity” value in the experiment on HSV-1 (setting [4]) came out at 24.1±2.2%; in the experiment on HSV-1 (co-exposure, peptide 20 µM), 57.6±1.8 %; in the experiment on HSV-1 (setting [5]) it was 40.3±2.6%. The “inhibition of HSV infectivity” value with HSV-1 (co-exposure, peptide 50 µM, reduced form) worked out at 70%.
